Results published in patent publication US20230406803A1, “TROPOLONE DERIVATIVES AND TAUTOMERS THEREOF FOR IRON REGULATION IN ANIMALS” (Kinesid Therapeutics, Inc, priority 2020, published 2023).

What was measured:
[1] = Human liver microsomal stability assay; assay type: in vitro ADME; details: human liver microsomes
Text: (§1) Further examples of useful assays include metabolic stability assays, such as but not limited to e.g., liver microsomal clearance assays which provide measurement such as, but not limited to e.g., liver microsomal clearance half-life (t1/2), liver microsomal intrinsic clearance (CLint), and the like. Such measurements are useful in assessing various characteristics of a subject compound, such as e.g., the availability of an intact compound to provide a pharmacological effect. A compound having a longer microsomal clearance half-life (t1/2), e.g., than a reference compound, will provide better exposure of the intact compound and greater availability to produce the relevant pharmacological effect. A compound having a less microsomal clearance, e.g., as measured by liver microsomal intrinsic clearance (CLint), will similarly result in greater exposure of the intact compound available for an increase in the relevant pharmacological effect, e.g., as compared to that of a reference compound with a higher liver microsomal intrinsic clearance (CLint). Other useful assays include in vitro hepatocyte metabolic stability assays.
(§2) Such assessments included human and mouse liver microsomal stability assays as well as 6-hour mouse PK studies.

[2] = Mouse liver microsomal stability assay; assay type: in vitro ADME; details: mouse liver microsomes
Text: as §1, §2

[3] = system: DMT1-deficient Caco-2 cells; test: shDMT1-Caco2 55Fe transport assay; assay type: cell-based; details: 3 μM, 4 h; fold change over DMSO normalized to hinokitiol at 3 μM (FC hino=1)
Text: Assay 2: shDMT1-Caco2 ^55Fe Transport Assay to Assess Ligand Ability in Transporting Fe (III)
Cells: DMT1-deficient Caco-2 cells (alias: “shDMT1,” or “4A” cells) were from Grillo et al. Science, 2017, and were cryopreserved in liquid nitrogen prior to use.
Reagents and supplies: ^55FeCl3 was obtained from PerkinElmer (Boston, MA). Iron(III) chloride (FeCl3) hexahydrate was obtained from Sigma. Dulbecco's Modified Eagle Medium (DMEM), fetal bovine serum (FBS), L-glutamine, MEM nonessential amino acids, penicillin-streptomycin, G418, formic acid, methanol, high-purity water, ammonium formate, dimethyl sulfoxide (DMSO) were purchased from Fisher Scientific. Propranolol, atenolol and carbutamide were obtained from Sigma-Aldrich Chemical Company (St Louis, MO). Scintillation cocktail was obtained from Research Product International Co. (Mount Prospect, IL). Stericup filter system (PES membrane, 0.22 um pore size) was purchased from Fisher Scientific. Corning item #3378 24-well transwell insert plates.
Test articles: known compounds hinokitiol and deferiprone were purchased from Sigma. They are tested side by side with the small molecule ligands disclosed in this application. DMSO stocks (10 mM, which is 1,000× of the 10 μM dose level) of hinokitiol or test articles were prepared. A stock solution of 25 mM deferiprone in DMSO was prepared. The DMSO stock solutions were stored at −20° C. or below when not in use.
The growth medium was prepared according to the following table
Apical media (serum free DMEM, 10 mM MES, pH 6.5) was prepared. Apical master mix media was prepared fresh with the addition of 200 nM ^55Fe before each experiment. For the negative control propranolol and atenolol wells, 200 nM of non-radioactive iron was used.
The basolateral media was serum-free DMEM, 10 mM HEPES, 2% bovine serum albumin (BSA), pH 7.4.
For each experiment, cells were seeded into the 24-well transwell plates (0.5 mL of 50,000 cells/mL) with growth media. The basolateral companion plate was loaded with 1 mL of growth media. After 12-24 hr, both the apical and basolateral chamber were replaced with growth media. The apical media was changed 3× per week for 21-28 days, including a media change exactly 48 hr before the assay date.
On the assay day, the TEER values were measured and the average TEER value was obtained. Individual wells with TEER value >35% lower than the average of all wells were excluded. For the qualified wells, the apical layer (twice) and basolaterial (once) chambers were washed with PBS. The basolateral companion plate was then filled with 1 mL of basolateral media. Via addition down the side-wall of the apical well, 300 μL per well of the apical assay master mix, with the indicated dose level of test article, was added. Each dose was tested in triplicate. The plates were incubated (5% CO2 and 90% humidity at 37° C.) for the indicated timepoints. At each indicated timepoint, the basolateral supernatant was gently mixed via pipetting, and 200 μL of the basolateral supernatant was transferred to scintillation vials. To each scintillation counting vial, 5 mL of scintillation cocktail fluid was added. For each scintillation vial, the radioactivity (CPM) was determined with liquid scintillation counter LS6500. The counting time per vial was 5 min.
All raw CPM values are divided by the average value of blank DMSO solution to give a fold of change above the DMSO value. The mean and standard deviation of each compound at each concentration level and at each time point measured was calculated to give the fold change (fc) value. For rank order compounds, the fc value of a ligand at 4 h time point is further divided by the fold change (fc) value of hinokitiol (a positive control compound) at an equimolar concentration to arrive at the FC (normalized fold of change) value. Data reported in Tables 1 and 2 is 4 hr time point FC=fc-ligand @ 3 uM/fc-hino @ 3 μM, and FC hino=1.

## CC(C)c1cccc(=O)c(O)c1 [hinokitiol, reference compound]
[1]; read-out: Human CLint
  microsomal CLint: 120 µL/min/mg
[1]; read-out: Human t1/2
  half-life: 11.6 min
[2]; read-out: Mouse CLint
  microsomal CLint: 46.7 µL/min/mg
[2]; read-out: Mouse t1/2
  half-life: 29.7 min
[3]
  Caco2 shDMT1 transport FC @ 3 μM, 4 h: 1
